Laboratory results as given in ChEMBL document CHEMBL4706528, “The design, synthesis and anti-tumor mechanism study of new androgen receptor degrader” (Eur J Med Chem, 2020).
Calls of active or inactive are those of the source. The calls are words filed in the database; no cut-off is given here.

Columns and labels:
LNCaP [1] = experiment: Induction of apoptosis in human LNCaP cells assessed as viable cells level at 2 micromol/L incubated for 24 hrs by Annexin V/PI staining staining based flow cytometry (reference value: 96.3%); type: functional; details: dose 2 µmol/L, at 2 µM
[2] = target: T1, Androgen receptor (Homo sapiens) (UniProt P10275); experiment: Selective androgen receptor degradation activity at androgen receptor in human LNCaP cells assessed as down regulation of protein level at 2 uM after 24 hrs by Western blot analysis; type: cell-based
T1 sequence (whole entry): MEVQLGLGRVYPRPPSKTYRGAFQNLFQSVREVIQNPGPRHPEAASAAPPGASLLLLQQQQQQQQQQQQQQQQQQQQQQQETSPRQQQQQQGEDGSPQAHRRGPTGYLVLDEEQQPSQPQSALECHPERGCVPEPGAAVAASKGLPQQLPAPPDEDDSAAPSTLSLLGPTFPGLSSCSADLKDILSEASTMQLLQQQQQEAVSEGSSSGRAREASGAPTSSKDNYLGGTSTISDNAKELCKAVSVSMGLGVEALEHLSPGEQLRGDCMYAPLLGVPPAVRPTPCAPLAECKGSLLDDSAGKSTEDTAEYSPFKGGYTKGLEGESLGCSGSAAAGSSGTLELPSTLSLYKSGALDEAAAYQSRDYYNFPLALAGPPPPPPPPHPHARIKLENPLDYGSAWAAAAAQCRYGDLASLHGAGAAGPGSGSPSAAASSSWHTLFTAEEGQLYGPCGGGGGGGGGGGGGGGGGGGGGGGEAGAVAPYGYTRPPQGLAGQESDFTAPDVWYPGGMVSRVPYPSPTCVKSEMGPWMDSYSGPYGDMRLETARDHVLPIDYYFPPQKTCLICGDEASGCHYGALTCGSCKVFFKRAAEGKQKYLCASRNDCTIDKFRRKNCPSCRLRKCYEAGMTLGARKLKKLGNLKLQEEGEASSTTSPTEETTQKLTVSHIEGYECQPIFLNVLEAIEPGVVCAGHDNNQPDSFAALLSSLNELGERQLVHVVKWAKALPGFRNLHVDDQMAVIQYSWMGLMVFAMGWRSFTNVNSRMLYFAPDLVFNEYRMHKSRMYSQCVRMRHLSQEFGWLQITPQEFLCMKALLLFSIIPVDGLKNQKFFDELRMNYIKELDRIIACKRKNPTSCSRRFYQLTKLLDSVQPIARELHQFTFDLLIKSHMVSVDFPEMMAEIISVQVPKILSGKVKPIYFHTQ

LNCaP [3] = experiment: Induction of apoptosis in human LNCaP cells assessed as necrotic cells level at 1 micromol/L incubated for 24 hrs by Annexin V/PI staining staining based flow cytometry (reference value: 0.694%); type: functional; details: dose 1 µmol/L, at 1 µM
LNCaP [4] = experiment: Induction of apoptosis in human LNCaP cells assessed as viable cells level at 1 micromol/L incubated for 24 hrs by Annexin V/PI staining staining based flow cytometry (reference value: 96.3%); type: functional; details: dose 1 µmol/L, at 1 µM

SMILES: CC1(C)C(=O)N(c2ccc(C#N)c(C(F)(F)F)c2)C(=S)N1CCCCCn1cc(COCCOCCOC(=O)CC23CC4CC(CC(C4)C2)C3)nn1
- Activity (LNCaP [1]): 96.1%
- Activity [2]: Active
- Activity (LNCaP [3]): 0.774%
- Activity (LNCaP [4]): 96.1%
